41 compounds from patent publication US10988459B2 (priority 2015, dated 2021) can be followed below.

Molecules are shown by their SMILES. Read-outs that look alike come from different tables or passages of the source.

The target in this test is human RIP1 kinase domain (2-375) (Homo sapiens (Human), UniProt Q13546). In words: biochemical. In kind it is biochemical. Put shortly: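 Ki^app comes from Morrison tight-binding fits of fractional activity versus compound concentration. Activity was read as ADP production, via tracer displacement lowering fluorescence polarization (633 nm laser). Conditions: 2 h, 50 nM insect-cell-expressed enzyme, 50 uM ATP, 30 mM MgCl2, 1 mM DTT, 0.5% DMSO, pH 7.5 Hepes.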

Where [1] appears, read: tight-binding apparent inhibition constant, human RIP1 kinase domain (2-375) 50 nM, 50 uM ATP, 2 hours, read-out: Ki.
[2] abbreviates: Table 5, apparent Ki (Morrison tight-binding fit), 50 nM RIP1 kinase domain, 50 uM ATP, 2 hours incubation, read-out: Ki.

Chain of human RIP1 kinase domain (2-375) (Q13546 2-375): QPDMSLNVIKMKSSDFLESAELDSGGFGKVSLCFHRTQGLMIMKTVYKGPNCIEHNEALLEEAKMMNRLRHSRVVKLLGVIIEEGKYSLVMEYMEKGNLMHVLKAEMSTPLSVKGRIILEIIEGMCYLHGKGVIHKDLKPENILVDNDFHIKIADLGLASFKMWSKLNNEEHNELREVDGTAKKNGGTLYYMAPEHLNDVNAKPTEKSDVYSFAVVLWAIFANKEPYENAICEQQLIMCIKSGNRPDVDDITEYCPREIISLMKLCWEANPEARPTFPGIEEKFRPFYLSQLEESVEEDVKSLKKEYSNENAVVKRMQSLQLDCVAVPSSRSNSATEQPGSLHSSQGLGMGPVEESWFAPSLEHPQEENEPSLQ

For `CN1C(=O)C(NC(=O)c2ncn(Cc3ccccc3)n2)CCn2nc(CN3CC(F)C3)cc21` (single isomer, unassigned) [Example 450, 1-benzyl-N-(2-((3-fluoroazetidin-1-yl)methyl)-4-methyl-5-oxo-5,6,7,8-tetrahydro-4H-pyrazolo[1,5-a][1,3]diazepin-6-yl)-1H-1,2,4-triazole-3-carboxamide], the Ki under setting [1] was 355 nM.
For the compound `COC1CN(Cc2cc3n(n2)CCC(NC(=O)c2ncn(Cc4ccccc4)n2)C(=O)N3C)C1` (single isomer, unassigned) [Example 451, 1-benzyl-N-(2-((3-methoxyazetidin-1-yl)methyl)-4-methyl-5-oxo-5,6,7,8-tetrahydro-4H-pyrazolo[1,5-a][1,3]diazepin-6-yl)-1H-1,2,4-triazole-3-carboxamide], the Ki under setting [1] was determined as 444 nM.
Take `Cc1cc2n(n1)CC[C@H](NC(=O)c1nc3n(n1)[C@H](c1ccccc1)CC3)C(=O)N2C` (single isomer, unassigned) [Example 610]: the Ki under setting [1] was determined as 920 nM.
Still for that read-out and setting: in the case of `O=C(N[C@H]1CCc2cc(F)cc(F)c2NC1=O)c1nc2n(n1)[C@H](c1ccccc1)CC2` (single isomer, unassigned) [Example 612] it was 71 nM; in that of `CN1C(=O)[C@@H](NC(=O)c2nc3n(n2)[C@H](c2ccccc2)CC3)COc2ccccc21` (single isomer, unassigned) [Example 613], 71 nM.
`CN1C(=O)[C@@H](NC(=O)c2nc3n(n2)[C@H](c2ccccc2)CC3)CCn2nccc21` (single isomer, unassigned) [Example 614]: the Ki under setting [1] stood at 790 nM.
As for `CN1C(=O)[C@@H](NC(=O)c2nc3n(n2)[C@@H](c2ccccc2)CC3)CCn2nccc21` (single isomer, unassigned) [Example 624], under setting [1], the Ki was found to be 20 nM.
The same measure, in the same setting: in the case of `O=C(N[C@H]1CCc2cc(F)cc(F)c2NC1=O)c1nc2n(n1)CC[C@@H]2c1ccccc1` (single isomer, unassigned) [Example 627] it was 160 nM; in that of `O=C(N[C@H]1CCc2cc(F)cc(F)c2NC1=O)c1nc2n(n1)CC[C@H]2c1ccccc1` (single isomer, unassigned) [Example 628], 5 nM; in that of `CN1C(=O)[C@H](NC(=O)c2ncn(Cc3ccc(Cl)cc3)n2)CCn2nc(C3CC3)cc21` (single isomer, unassigned) [Example 671], 8200 nM.
Regarding `CCn1cc(-c2cc3n(n2)CCC(NC(=O)c2ncn(Cc4ccccc4)n2)C(=O)N3C)cn1` (single isomer, unassigned) [Example 698, 1-benzyl-N-[2-(1-ethylpyrazol-4-yl)-4-methyl-5-oxo-7,8-dihydro-6H-pyrazolo[1,5-a][1,3]diazepin-6-yl]-1,2,4-triazole-3-carboxamide], the Ki under setting [2] was found to be 27 nM.
Turning to `CC(C)[C@@H]1CCCc2nc(C(=O)N[C@H]3COc4cc(F)cc(F)c4NC3=O)nn21` (single isomer, unassigned) [Example 715], under setting [2], the Ki came to 5 nM.
Regarding `CCC[C@@H]1CCCc2nc(C(=O)N[C@H]3COc4cc(F)cc(F)c4NC3=O)nn21` (single isomer, unassigned) [Example 716], under setting [2], the Ki was found to be 3 nM.
As to `CC(C)[C@H]1CCCc2nc(C(=O)N[C@H]3COc4cc(F)cc(F)c4NC3=O)nn21` (single isomer, unassigned) [Example 717], the Ki under setting [2] was found to be 207 nM.
`CN1C(=O)C(NC(=O)c2ncn(Cc3ccccc3)n2)CCn2nc(CN3CCC(F)(F)C3)cc21` (single isomer, unassigned) [Example 719, 1-benzyl-N-[2-[(3,3-difluoropyrrplidin-1-yl)methyl]-4-methyl-5-oxo-7,8-dihydro-6H-pyrazolo[1,5-a][1,3]diazepin-6-yl]-1,2,4-triazole-3-carboxamide]: the Ki under setting [2] stood at 214 nM.
As for `CN1C(=O)[C@@H](NC(=O)c2ncn(Cc3ccccc3)n2)CCn2nc(CN3CCOCC3)cc21` (single isomer, unassigned) [Example 720], the Ki under setting [2] is 155 nM.
For the compound `CN1C(=O)C(NC(=O)c2ncn(Cc3ccccc3)n2)CCn2nc(CN3CC(F)C3)cc21` (single isomer, unassigned) [Example 721, 1-benzyl-N-[2-[(3-fluoroazetidin-1-yl)methyl]-4-methyl-5-oxo-7,8-dihydro-6H-pyrazolo[1,5-a][1,3]diazepin-6-yl]-1,2,4-triazole-3-carboxamide], the Ki under setting [2] stood at 355 nM.
Turning to `COC1CN(Cc2cc3n(n2)CCC(NC(=O)c2ncn(Cc4ccccc4)n2)C(=O)N3C)C1` (single isomer, unassigned) [Example 722, 1-benzyl-N-[2-[(3-methoxyazetidin-1-yl)methyl]-4-methyl-5-oxo-7,8-dihydro-6H-pyrazolo[1,5-a][1,3]diazepin-6-yl]-1,2,4-triazole-3-carboxamide], the Ki under setting [2] is 444 nM.
Regarding `COCCNCc1cc2n(n1)CCC(NC(=O)c1ncn(Cc3ccccc3)n1)C(=O)N2C` (single isomer, unassigned) [Example 724, 1-benzyl-N-[2-[(2-methoxyethylamino)methyl]-4-methyl-5-oxo-7,8-dihydro-6H-pyrazolo[1,5-a][1,3]diazepin-6-yl]-1,2,4-triazole-3-carboxamide], the Ki under setting [2] turned out to be 598 nM.
As for `COC1CN(Cc2cc3n(n2)CC[C@H](NC(=O)c2ncn(Cc4ccccc4)n2)C(=O)N3C)C1` (single isomer, unassigned) [Example 725], the Ki under setting [2] came out at 172 nM.
As for `CN1C(=O)[C@@H](NC(=O)c2ncn(Cc3ccccc3)n2)CCn2nc(CN3CC(F)C3)cc21` (single isomer, unassigned) [Example 726], the Ki under setting [2] was 142 nM.
Still for that read-out and setting: in the case of `CN1C(=O)[C@@H](NC(=O)c2ncn(Cc3ccccc3)n2)CCn2nc(CN3CCC(F)(F)C3)cc21` (single isomer, unassigned) [Example 727] it was 59 nM; in that of `COCCNCc1cc2n(n1)CC[C@H](NC(=O)c1ncn(Cc3ccccc3)n1)C(=O)N2C` (single isomer, unassigned) [Example 728], 225 nM; in that of `CN1C(=O)[C@@H](NC(=O)c2nc3n(n2)CCN[C@@H]3c2ccccc2)COc2ccccc21` (single isomer, unassigned) [Example 729], 74 nM.
On to `CN1C(=O)[C@@H](NC(=O)c2nc3n(n2)CCN(C)C3c2ccccc2)COc2ccccc21` (single isomer, unassigned) [Example 730], for which, under setting [2], the Ki is 112 nM.
Still for that read-out and setting: in the case of `CN1C(=O)[C@@H](NC(=O)c2ncn(Cc3ccccc3)n2)CCn2nc(CO)cc21` (single isomer, unassigned) [Example 732] it was 61 nM.
With `CN1C(=O)[C@@H](NC(=O)c2ncn(Cc3ccccc3)n2)CCn2nc(CNCC(F)(F)F)cc21` (single isomer, unassigned) [Example 733], under setting [2], the Ki amounted to 68 nM.
For the compound `CN1C(=O)[C@@H](NC(=O)c2nc3n(n2)[C@@H](c2ccccc2)CCC3)COc2ccccc21` (single isomer, unassigned) [Example 734], the Ki under setting [2] stood at 149 nM.
`CN1C(=O)[C@@H](NC(=O)c2cn3c(C(F)(F)F)cccc3n2)COc2ccccc21` (single isomer, unassigned) [Example 736]: the Ki (Ki) came out at 70 nM.
For `CN1C(=O)[C@H](NC(=O)c2ncn(Cc3ccccc3)n2)CCn2nc(CCCN3CCOCC3)cc21` (single isomer, unassigned) [Example 738], the Ki under setting [2] is 4020 nM.
Consider `CN1C(=O)[C@@H](NC(=O)c2cn(Cc3ccccc3)cn2)CCn2nccc21` (single isomer, unassigned) [Example 750], for which the Ki under setting [2] was 66 nM.
Regarding `CC[C@]1(C)OCc2cnc(C(=O)N[C@H]3COc4ccccc4N(C)C3=O)cc21` (single isomer, unassigned) [Example 764], under setting [2], the Ki was determined as 267 nM.
As for `CC[C@@]1(C)OCc2cnc(C(=O)N[C@H]3COc4ccccc4N(C)C3=O)cc21` (single isomer, unassigned) [Example 765], under setting [2], the Ki was determined as 15 nM.
In the case of `COCCNCc1cc2n(n1)CCC(NC(=O)c1ncn(Cc3ccccc3)n1)C(=O)N2C` (single isomer, unassigned) [Example 780, 1-benzyl-N-(2-(((2-methoxyethyl)amino)methyl)-4-methyl-5-oxo-5,6,7,8-tetrahydro-4H-pyrazolo[1,5-a][1,3]diazepin-6-yl)-1H-1,2,4-triazole-3-carboxamide], the Ki under setting [2] turned out to be 598 nM.
As for `COCCNCc1cc2n(n1)CCC(NC(=O)c1ncn(Cc3ccccc3)n1)C(=O)N2C` (single isomer, unassigned) [Example 784], under setting [2], the Ki turned out to be 225 nM.
Regarding `CN1C(=O)[C@@H](NC(=O)c2nc3n(n2)CCN[C@@H]3c2ccccc2)COc2ccccc21` (single isomer, unassigned) [Example 785], under setting [2], the Ki was found to be 74 nM.
Take `CN1C(=O)[C@@H](NC(=O)c2ncn(Cc3ccccc3)n2)CCn2nc(CO)cc21` (single isomer, unassigned) [Example 788]: the Ki under setting [2] is 61 nM.
Regarding `CN1C(=O)[C@@H](NC(=O)c2ncn(Cc3ccccc3)n2)CCn2nc(CNCC(F)(F)F)cc21` (single isomer, unassigned) [Example 789], the Ki under setting [2] was 68 nM.
Regarding `CN1C(=O)[C@@H](NC(=O)c2nc3n(n2)[C@@H](c2ccccc2)CCC3)COc2ccccc21` (single isomer, unassigned) [Example 790], the Ki under setting [2] came out at 149 nM.
On to `CN1C(=O)[C@@H](NC(=O)c2nc3n(n2)C(c2ccccc2)CCC3)COc2ccccc21` (single isomer, unassigned) [Example 791], for which the Ki under setting [2] was 13 nM.
Turning to `CN1C(=O)[C@@H](NC(=O)c2cn3c(C(F)(F)F)cccc3n2)COc2ccccc21` (single isomer, unassigned) [Example 792], under setting [2], the Ki amounted to 70 nM.
